Assay results published in ChEMBL document CHEMBL1201862, “PubChem BioAssay data set” (2004).
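Tested at 5 concentrations; 48 h exposure; 96-well plates; endpoints linearly interpolated, else capped at highest concentration. Here, GI50 denotes the concentration required for 50% inhibition of growth.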 The source made the active and inactive calls. Rule as the data show it: active = GI50 up to about 1.1 µM and inactive = higher.

How the values were obtained:
Assay in all cases: DTP human tumour cell line panel, 48 h
PC-3 = test system: PC-3
OVCAR-3 = test system: OVCAR-3
CAKI-1 = test system: CAKI-1
RPMI-8226 = test system: RPMI-8226
HCT-15 = test system: HCT-15
NCI-H522 = test system: NCI-H522
SN12C = test system: SN12C
DU-145 = test system: DU-145
SF-295 = test system: SF-295
786-0 = test system: 786-0
OVCAR-5 = test system: OVCAR-5
UO-31 = test system: UO-31
Malme-3M = test system: Malme-3M
M14 = test system: M14
NCI/ADR-RES = test system: NCI/ADR-RES
OVCAR-8 = test system: OVCAR-8
NCI-H460 = test system: NCI-H460
SNB-75 = test system: SNB-75
HT-29 = test system: HT-29
A498 = test system: A498
SK-OV-3 = test system: SK-OV-3
K562 = test system: K562
MDA-MB-435 = test system: MDA-MB-435
Hs-578T = test system: Hs-578T
NCI-H23 = test system: NCI-H23
KM12 = test system: KM12
SK-MEL-2 = test system: SK-MEL-2
EKVX = test system: EKVX
MOLT-4 = test system: MOLT-4
HOP-62 = test system: HOP-62
IGROV-1 = test system: IGROV-1
SR = test system: SR
SK-MEL-28 = test system: SK-MEL-28
NCI-H226 = test system: NCI-H226
HCT-116 = test system: HCT-116
MCF7 = test system: MCF7
OVCAR-4 = test system: OVCAR-4
HOP-92 = test system: HOP-92
CCRF-CEM = test system: CCRF-CEM
T47D = test system: T47D
SNB-19 = test system: SNB-19
BT-549 = test system: BT-549
TK-10 = test system: TK-10
SK-MEL-5 = test system: SK-MEL-5
LOX IMVI = test system: LOX IMVI
MDA-MB-231 = test system: MDA-MB-231
ACHN = test system: ACHN
HCC 2998 = test system: HCC 2998
MDA-N = test system: MDA-N
COLO 205 = test system: COLO 205
A549 = test system: A549
UACC-257 = test system: UACC-257
U-251 = test system: U-251
UACC-62 = test system: UACC-62
SW-620 = test system: SW-620
SF-268 = test system: SF-268
RXF 393 = test system: RXF 393
HL-60 = test system: HL-60
SF-539 = test system: SF-539

## COc1ccc2c(c1)CCc1c-2[nH]c2ccc(OC)cc12
PC-3
  GI50: > 100 µM (inactive)
OVCAR-3
  GI50: > 100 µM (inactive)
CAKI-1
  GI50: > 100 µM (inactive)
RPMI-8226
  GI50: > 100 µM (inactive)
HCT-15
  GI50: > 100 µM
NCI-H522
  GI50: > 100 µM (inactive)
SN12C
  GI50: > 100 µM (inactive)
DU-145
  GI50: > 100 µM (inactive)
SF-295
  GI50: > 100 µM (inactive)
786-0
  GI50: > 100 µM (inactive)
OVCAR-5
  GI50: > 100 µM (inactive)
UO-31
  GI50: > 100 µM (inactive)
Malme-3M
  GI50: 45.8 µM (inactive)
M14
  GI50: > 100 µM (inactive)
NCI/ADR-RES
  GI50: > 100 µM (inactive)
OVCAR-8
  GI50: > 100 µM (inactive)
NCI-H460
  GI50: > 100 µM (inactive)
SNB-75
  GI50: > 100 µM (inactive)
HT-29
  GI50: 7.21 µM (inactive)
A498
  GI50: > 100 µM (inactive)
SK-OV-3
  GI50: > 100 µM (inactive)
K562
  GI50: > 100 µM (inactive)
MDA-MB-435
  GI50: > 100 µM (inactive)
Hs-578T
  GI50: > 100 µM (inactive)
NCI-H23
  GI50: > 100 µM (inactive)
KM12
  GI50: > 100 µM (inactive)
SK-MEL-2
  GI50: > 100 µM (inactive)
EKVX
  GI50: > 100 µM (inactive)
MOLT-4
  GI50: > 100 µM (inactive)
HOP-62
  GI50: > 100 µM (inactive)
IGROV-1
  GI50: > 100 µM (inactive)
SR
  GI50: > 100 µM (inactive)
SK-MEL-28
  GI50: > 100 µM (inactive)
NCI-H226
  GI50: 36.4 µM (inactive)
HCT-116
  GI50: > 100 µM (inactive)
MCF7
  GI50: > 100 µM (inactive)
OVCAR-4
  GI50: > 100 µM (inactive)
HOP-92
  GI50: > 100 µM (inactive)
CCRF-CEM
  GI50: 14.4 µM (inactive)
T47D
  GI50: 20.8 µM (inactive)
SNB-19
  GI50: > 100 µM (inactive)
BT-549
  GI50: > 100 µM (inactive)
TK-10
  GI50: > 100 µM (inactive)
SK-MEL-5
  GI50: > 100 µM (inactive)
LOX IMVI
  GI50: > 100 µM (inactive)
MDA-MB-231
  GI50: > 100 µM (inactive)
ACHN
  GI50: > 100 µM (inactive)
HCC 2998
  GI50: > 100 µM (inactive)
MDA-N
  GI50: > 100 µM (inactive)
COLO 205
  GI50: > 100 µM (inactive)
A549
  GI50: > 100 µM (inactive)
UACC-257
  GI50: > 100 µM (inactive)
U-251
  GI50: > 100 µM (inactive)
UACC-62
  GI50: > 100 µM (inactive)
SW-620
  GI50: > 100 µM (inactive)
SF-268
  GI50: > 100 µM (inactive)

## N/C(=N/O)c1cn(C2OC(CO)C(O)C2O)c2ncnc(NO)c12 (stereo not drawn)
PC-3
  GI50: 0.0621 µM (active)
OVCAR-3
  GI50: 0.255 µM (active)
RPMI-8226
  GI50: 0.146 µM (active)
HCT-15
  GI50: 0.184 µM
NCI-H522
  GI50: 0.0226 µM (active)
SN12C
  GI50: 0.0593 µM (active)
DU-145
  GI50: 0.112 µM (active)
SF-295
  GI50: 0.773 µM (active)
786-0
  GI50: 0.0556 µM (active)
OVCAR-5
  GI50: 0.656 µM (active)
UO-31
  GI50: 0.084 µM (active)
Malme-3M
  GI50: 0.0373 µM (active)
M14
  GI50: 0.126 µM (active)
NCI/ADR-RES
  GI50: 0.203 µM (active)
OVCAR-8
  GI50: 0.242 µM (active)
NCI-H460
  GI50: 0.112 µM (active)
SNB-75
  GI50: 0.222 µM (active)
HT-29
  GI50: 0.461 µM (active)
A498
  GI50: 0.425 µM (active)
SK-OV-3
  GI50: < 0.02 µM (active)
K562
  GI50: 0.184 µM (active)
MDA-MB-435
  GI50: 0.0962 µM (active)
Hs-578T
  GI50: 1.01 µM (active)
NCI-H23
  GI50: 0.216 µM (active)
RXF 393
  GI50: 0.356 µM (active)
SK-MEL-2
  GI50: < 0.0131 µM (active)
HL-60
  GI50: 0.166 µM (active)
EKVX
  GI50: 0.422 µM (active)
MOLT-4
  GI50: 0.0871 µM (active)
HOP-62
  GI50: 0.366 µM (active)
IGROV-1
  GI50: 0.451 µM (active)
SR
  GI50: 0.0356 µM (active)
SK-MEL-28
  GI50: 0.476 µM (active)
NCI-H226
  GI50: 0.34 µM (active)
HCT-116
  GI50: 0.0337 µM (active)
MCF7
  GI50: 0.144 µM (active)
SF-539
  GI50: 0.117 µM (active)
OVCAR-4
  GI50: 0.265 µM (active)
HOP-92
  GI50: 1.03 µM (active)
CCRF-CEM
  GI50: 0.0165 µM (active)
T47D
  GI50: 0.037 µM (active)
SNB-19
  GI50: 0.514 µM (active)
BT-549
  GI50: 0.426 µM (active)
TK-10
  GI50: 0.0865 µM (active)
SK-MEL-5
  GI50: 0.151 µM (active)
LOX IMVI
  GI50: 0.123 µM (active)
MDA-MB-231
  GI50: 0.0344 µM (active)
ACHN
  GI50: 0.0189 µM (active)
HCC 2998
  GI50: 0.147 µM (active)
MDA-N
  GI50: 0.0407 µM (active)
COLO 205
  GI50: 0.0771 µM (active)
A549
  GI50: 0.126 µM (active)
UACC-257
  GI50: 0.224 µM (active)
U-251
  GI50: 0.226 µM (active)
UACC-62
  GI50: 0.362 µM (active)
SW-620
  GI50: 0.143 µM (active)
SF-268
  GI50: 0.164 µM (active)
